Assay [1] deals with Psuedomonas aeruginosa (Pa). In words: MIC against bacteria (nutrient agar). The assay is classed as cell-based, Psuedomonas aeruginosa ATCC 10145. The note with it: 30° C., 48 h, read-out: Minimum Inhibitory Concentration, Pa. The procedure:
(§1) The antimicrobial activity of the compounds of the present invention is set forth as the minimum inhibitory concentration (MIC) for the active compounds and is determined for nine (9) bacteria, using nutrient agar, and seven (7) yeast and fungi, using malt yeast agar. This determination is conducted using a one percent solution of the test compound prepared in a mixture of acetone and water.
Nutrient agar is prepared at pH 6.8, representing a neutral medium, and at pH 8.2, representing an alkaline medium. The nutrient agars are prepared by adding 23 g of nutrient agar to one-liter of deionized water. In addition, the alkaline medium is prepared by adjusting a 0.04M solution of N-[tris-(hydroxymethyl)methyl]-glycine buffered deionized water with concentrated sodium hydroxide to a pH of 8.5.
(§2) The test tubes containing the agar are cooled in a water bath until the temperature of the agar is 48° C. Then, an appropriate amount of the one percent solution of the test compound is added (except in the controls where no compound is added) to the respective test tubes so that the final concentrations are 500, 250, 100, 50, 25, 10, 5, 2.5, 1.0 and zero parts per million of the test compound in the agar, thus having a known concentration of test compound dispersed therein. The contents of the test tubes are then transferred to respective petri plates. After drying for 24 hours, the petri plates containing nutrient agar are inoculated with bacteria and those containing malt yeast agar are inoculated with yeast and fungi.
The inoculation with bacteria is accomplished by using the following procedure. Twenty-four hour-cultures of each of the bacteria are prepared by incubating the respective bacteria in tubes containing nutrient broth for 24 hours at 30° C. in a shaker. Dilutions of each of the 24 hour-cultures are made so that nine separate suspensions (one for each of the nine test bacteria) are made, each containing 10^8 colony forming units (CFU) per mL of suspension of a particular bacteria. Aliquots of 0.3 mL of each of the bacterial suspensions are used to fill the individual wells of Steer's Replicator. For each microbial suspension, 0.3 mL was used to fill three wells (i.e., three wells of 0.3 mL each) so that for the nine different bacteria, 27 wells are filled. The Steer's Replicator is then used to inoculate both the neutral and alkaline pH nutrient agar petri plates.
The inoculated petri plates are incubated at 30° C. for 48 hours and then read to determine if the test compound which is incorporated into the agar prevented growth of the respective bacteria.
(§3) Table I lists the bacteria, yeast and fungi used in the MIC test described above along with their respective American Type Culture Collection (ATCC) identification numbers.

The test system of the next assay is Escherichia coli (Ec). Put plainly: MIC against bacteria (nutrient agar). It is filed as cell-based, Escherichia coli ATCC 11229. The following applies: 30° C., 48 h, read-out: Minimum Inhibitory Concentration, Ec.
Assay [2] concerns Klebsiella pneumoniae (Kp). Put plainly: MIC against bacteria (nutrient agar). The assay is classed as cell-based, Klebsiella pneumoniae ATCC 8308. The following applies: 30° C., 48 h, read-out: Minimum Inhibitory Concentration, Kp.
For assay [3], the system named is Aureobasidium pullulan (Ap). In words: MIC against yeast/fungi (malt yeast agar). It is filed as cell-based, Aureobasidium pullulan ATCC 16622. The following applies: 30° C., yeast 48 h / fungi 72 h, read-out: Minimum Inhibitory Concentration, Ap. How it is done:
as §1
(§4) Malt yeast agar is prepared by adding 3 g yeast extract and 45 g malt agar per liter of deionized water. The specific agar is dispensed in 30 mL aliquots into 25×200 mm test tubes, capped and autoclaved for 15 minutes at 115° C.
as §2
(§5) The inoculation with the yeast and fungi is accomplished as follows. Cultures of yeast and fungi are incubated for seven days on malt yeast agar at 30° C. These cultures are used to prepare suspensions by the following procedure. A suspension of each organism is prepared by adding 10 mL of sterile saline and 10 microliters of octylphenoxy polyethoxy ethanol to the agar slant of yeast or fungi. The sterile saline/octylphenoxy polyethoxy ethanol solution is then agitated with a sterile swab to suspend the microorganism grown on the slant. Each resulting suspension is diluted into sterile saline (1 part suspension to 9 parts sterile saline). Aliquots of these dilutions are placed in individual wells of Steer's Replicator and petri plates inoculated as previously described. The petri plates are incubated at 30° C. and read after 48 hours for yeast and 72 hours for fungi.
as §3

Assay [4] concerns Staphylococcus aureus (Sa). In words: MIC against bacteria (nutrient agar). It is filed as cell-based, Staphylococcus aureus ATCC 6538. The following applies: 30° C., 48 h, read-out: Minimum Inhibitory Concentration, Sa.
The subject of the next assay is Candida albicans (Ca). Put plainly: MIC against yeast/fungi (malt yeast agar). The following applies: 30° C., yeast read after 48 h, read-out: Minimum Inhibitory Concentration, Ca. It is filed as cell-based, Candida albicans ATCC 10231. How it is done: as §1, §4, §2, §5, §3

Converted amounts (≈) assume the structure as drawn. Like-named read-outs stand apart in the source and are kept apart here. Bounds are passed on as bounds.

For the compound `N#CSCOc1nsnc1-c1ccccc1` [Example I, ((4-Phenyl-1,2,5-thiadiazol-3-yl)oxy)methyl ester thiocyanic acid], the MIC in assay [1] (pH 6.8, nutrient agar) was greater than 500 µg/mL; in assay [1] (pH 8.2, nutrient agar) it was greater than 500 µg/mL; with Escherichia coli (Ec) (pH 6.8, nutrient agar) it was 500 µg/mL (≈ 2010 µM); in the assay with Escherichia coli (Ec) (pH 8.2, nutrient agar), greater than 500 µg/mL; in assay [2] (pH 6.8, nutrient agar), 500 µg/mL (≈ 2010 µM); in assay [2] (pH 8.2, nutrient agar), 500 µg/mL (≈ 2010 µM). In addition, the MIC in assay [3] is less than 1 µg/mL; in assay [4] (pH 6.8, nutrient agar), 25 µg/mL (≈ 100 µM); in assay [4] (pH 8.2, nutrient agar), 25 µg/mL (≈ 100 µM); in the assay on Candida albicans (Ca), 2.5 µg/mL (≈ 10 µM).
